According to ChEMBL document CHEMBL1201862, “PubChem BioAssay data set” (2004):
Active and inactive are the calls of the source.

Key:
Cytochrome P450 3A4 = Cytochrome P450 3A4 (Homo sapiens, UniProt P08684); details: Potency;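 note: confirmatory qHTS run detecting inhibitors and substrates of CYP3A4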
[1] = viability loss in THP-1 monocytes – THP-1 cells, cytotoxicity control for Vif-APOBEC3G degradation inhibitor project, dose response (AID 1117359); format: functional; details: THP-1
Cytochrome P450 2D6 = Cytochrome P450 2D6 (Homo sapiens, UniProt P10635);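 note: CYP2D6 member of a cytochrome P450 panel assay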
[2] = molecular target: T1, Short transient receptor potential channel 4 (Mus musculus, UniProt Q9QUQ5); experiment: block of DAMGO-driven TRPC4 calcium entry – cell-based, HEK293 TRPC4/mu-opioid, Fluo-4 calcium, dose response (AID 434942); format: functional;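 note: potency of inhibitors blocking the TRPC4 calcium response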
T1 sequence (Q9QUQ5 whole entry): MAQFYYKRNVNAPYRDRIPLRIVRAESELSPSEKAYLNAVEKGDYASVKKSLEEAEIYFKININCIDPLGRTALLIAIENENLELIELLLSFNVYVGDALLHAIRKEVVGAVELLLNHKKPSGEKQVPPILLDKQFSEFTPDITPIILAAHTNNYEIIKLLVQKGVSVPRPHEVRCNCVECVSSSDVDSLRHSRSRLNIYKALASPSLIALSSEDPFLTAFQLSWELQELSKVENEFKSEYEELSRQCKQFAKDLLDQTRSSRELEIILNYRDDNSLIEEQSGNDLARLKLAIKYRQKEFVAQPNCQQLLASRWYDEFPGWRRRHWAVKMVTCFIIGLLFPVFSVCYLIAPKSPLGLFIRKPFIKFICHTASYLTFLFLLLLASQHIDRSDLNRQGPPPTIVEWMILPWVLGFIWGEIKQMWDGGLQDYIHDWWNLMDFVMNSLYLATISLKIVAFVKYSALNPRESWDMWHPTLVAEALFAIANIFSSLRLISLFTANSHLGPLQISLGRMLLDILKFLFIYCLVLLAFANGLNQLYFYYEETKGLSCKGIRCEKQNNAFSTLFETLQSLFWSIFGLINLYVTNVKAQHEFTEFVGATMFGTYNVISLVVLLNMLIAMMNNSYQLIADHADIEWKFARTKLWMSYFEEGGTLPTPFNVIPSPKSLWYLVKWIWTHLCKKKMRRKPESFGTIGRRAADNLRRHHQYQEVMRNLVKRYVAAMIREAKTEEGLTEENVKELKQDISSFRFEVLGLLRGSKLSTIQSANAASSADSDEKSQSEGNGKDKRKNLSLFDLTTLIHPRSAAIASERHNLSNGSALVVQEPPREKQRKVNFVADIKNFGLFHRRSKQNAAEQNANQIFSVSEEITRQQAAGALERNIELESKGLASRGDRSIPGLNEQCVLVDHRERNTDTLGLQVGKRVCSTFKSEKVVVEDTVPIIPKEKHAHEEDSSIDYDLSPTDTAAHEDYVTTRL

HeLa = experiment: viability loss in HeLa cells – cell-based, 24 h, cherry-picked samples, cytotoxicity control, dose response (AID 504726); format: functional; details: Homo sapiens;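 note: potency for cytotoxicity as loss of luminescence signal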
Streptokinase A = molecular target: T2, Streptokinase A (Streptococcus pyogenes serotype M1, UniProt P10520); experiment: viability-normalized secreted streptokinase activity reduction – plasminogen activation absorbance, OD405, dose response (AID 1914); format: functional, Streptococcus pyogenes M1 GAS;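 note: secreted streptokinase activity via plasminogen activation per viability signal from cell pellet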
T2 sequence (P10520 whole entry): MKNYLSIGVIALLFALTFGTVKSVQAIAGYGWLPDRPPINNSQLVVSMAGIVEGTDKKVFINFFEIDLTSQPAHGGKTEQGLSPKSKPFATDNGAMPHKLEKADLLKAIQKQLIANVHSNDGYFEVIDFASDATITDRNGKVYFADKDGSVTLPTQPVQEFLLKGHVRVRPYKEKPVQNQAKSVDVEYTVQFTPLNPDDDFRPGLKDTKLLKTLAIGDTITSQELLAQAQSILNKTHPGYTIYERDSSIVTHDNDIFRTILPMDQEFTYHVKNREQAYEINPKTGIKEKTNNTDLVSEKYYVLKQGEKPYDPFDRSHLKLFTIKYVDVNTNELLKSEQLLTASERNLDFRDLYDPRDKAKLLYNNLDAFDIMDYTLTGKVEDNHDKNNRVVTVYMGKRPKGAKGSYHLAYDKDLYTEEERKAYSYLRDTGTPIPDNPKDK

Streptococcus = experiment: GAS UMAA2166 growth inhibition – luminescence, BacTiterGlo, counter-screen for streptokinase expression inhibitor project, dose response (AID 1915); format: functional, organism-based;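 note: potency for reduction of bacterial viability or growth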
[3] = tested on: Streptococcus sp. 'group A'; experiment: Streptococcus pyogenes SK(-)GAS viability under kanamycin – luminescence, BacTiterGlo, confirmation, counter-screen for streptokinase expression inhibitor project, dose response (AID 1900); format: functional, organism-based
[4] = molecular target: T3, Heat shock factor protein 1 (Mus musculus, UniProt P38532); experiment: decrease of HSF1-responsive luciferase luminescence – cell-based, NIH3T3, dose retest, confirmation (AID 2382); format: functional;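 note: NIH3T3 fibroblasts with HSF1-driven luciferase reporter stressed by proteasome inhibitor MG132; luminescence from HSF1-driven luciferase expression after 8 hours of MG132 stress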
T3 sequence (P38532 whole entry): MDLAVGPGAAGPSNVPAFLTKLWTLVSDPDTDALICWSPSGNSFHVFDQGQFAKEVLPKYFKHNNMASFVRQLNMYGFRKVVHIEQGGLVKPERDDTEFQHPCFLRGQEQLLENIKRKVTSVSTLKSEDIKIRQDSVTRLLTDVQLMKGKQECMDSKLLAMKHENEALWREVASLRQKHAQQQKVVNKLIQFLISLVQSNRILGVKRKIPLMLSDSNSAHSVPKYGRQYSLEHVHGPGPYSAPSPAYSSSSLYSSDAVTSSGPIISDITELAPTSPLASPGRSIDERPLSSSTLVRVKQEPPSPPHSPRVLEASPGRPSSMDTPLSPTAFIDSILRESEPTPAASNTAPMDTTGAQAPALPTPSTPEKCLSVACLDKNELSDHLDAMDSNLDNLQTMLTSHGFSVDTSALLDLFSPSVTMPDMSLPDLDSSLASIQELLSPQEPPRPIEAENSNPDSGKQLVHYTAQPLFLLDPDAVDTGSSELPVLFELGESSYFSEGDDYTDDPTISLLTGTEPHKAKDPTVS

[5] = alpha-synuclein stem-loop luciferase translation blockers – H4 neuroglioma cells, luminescence, confirmation (AID 1988); format: functional, cell-based
[6] = Luminescence Cell-Based Dose Response HTS to Identify Inhibitors of 5'UTR Stem-Loop Driven Prion Protein mRNA Translation in H4 Neuroglioblastoma Cells. [Related pubchem assays: 1827 (Project Summary), 1813 (Primary HTS)]; format: functional
[7] = luciferase reporter signal suppression in cells – H4 neuroglioma cells, luminescence, dose response (AID 1990); format: functional, cell-based
[8] = blockade of melanocortin 4 receptor signaling – cell-based, plate reader, cherry pick, counter-screen for LGR2 antagonist project, dose response (AID 743444); format: functional;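 note: transfected HEK 293 cells stimulated with alpha-MSH peptide; potency of inhibitors of the alpha-MSH evoked signal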
[9] = A549 cell cytotoxicity, dose response, cytotoxicity control, plate reader, cherry-pick, antagonist series (AID 743412); format: functional, cell-based
[10] = Luminescence Cell-Based Dose Confirmation HTS to Identify Inhibitors of Platelet Dense Granule Release. [Related pubchem assays: 1663 (Primary HTS), 1678 (Summary of Project)]; format: functional
[11] = viability loss in HEK293 cells – cell-based, plate reader, cherry-picked samples, cytotoxicity control, dose response (AID 743446); format: functional
[12] = molecular target: Luciferin 4-monooxygenase (Photinus pyralis, UniProt P08659); experiment: inhibition of purified Photinus pyralis luciferase – biochemical, luminescence, dose response (AID 1891)
[13] = blockers of bursicon-stimulated LGR2 cAMP reporter – cell-based, HEK293, CRE-luciferase reporter, cherry pick, set 2, dose response (AID 743343); format: functional;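 note: transfected cells were stimulated with diluted bursicon conditioned medium after compound addition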
[14] = THP-1 cell cytotoxicity, dose response, cytotoxicity control for non-replicating M. tuberculosis project (AID 489025); format: functional
cells = format: functional
[15] = toxicity toward HepG2 liver cells – cell-based, plate reader, cherry-pick, antagonist series, cytotoxicity control, dose response (AID 743416); format: functional
[16] = A cytotoxicity screen of small molecule inhibitors of the PhoP region in Salmonella typhi identified in the primary screen. [Related pubchem assays: 1850, 1864, 1985 ]; format: functional
[17] = molecular target: DNA dC->dU-editing enzyme APOBEC-3G (Homo sapiens, UniProt Q9HC16); experiment: Dose Response confirmation of small molecule APOBEC3G DNA Deaminase Inhibitors via a fluorescence-based single-stranded DNA deaminase assay. [Related pubchem assays (depositor defined):AID493012, AID493028]; format: functional
[18] = molecular target: DNA dC->dU-editing enzyme APOBEC-3A (Homo sapiens, UniProt P31941); experiment: A3A deaminase inhibition for selectivity – biochemical, dose response (AID 504722); format: functional
[19] = molecular target: FAD-linked sulfhydryl oxidase ALR (Homo sapiens, UniProt P55789); experiment: ALR-catalysed DTT oxidation blockers – biochemical, H2O2 detection, luminescence, cherry-pick, dose response (AID 493248)
Large T antigen = Large T antigen (Simian virus 40, UniProt P03070); format: functional, Betapolyomavirus macacae;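 note: Confirmatory-stage PubChem screen for compounds that inhibit SV40 T antigen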
[20] = molecular target: T4, Voltage-gated N-type calcium channel alpha-1B subunit/Amyloid beta A4 precursor protein-binding family A member 1 (Homo sapiens, UniProt Q00975+Q02410); format: protein assay
[21] = molecular target: T4, Voltage-gated N-type calcium channel alpha-1B subunit/Amyloid beta A4 precursor protein-binding family A member 1; format: protein assay; remark: listed apart in the source
X-box-binding protein 1 = molecular target: T5, X-box-binding protein 1 (Homo sapiens, UniProt P17861); format: functional, Cricetulus griseus;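 note: confirmatory dose-response counter-screen serving a CHOP assay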
T5 sequence (P17861 whole entry): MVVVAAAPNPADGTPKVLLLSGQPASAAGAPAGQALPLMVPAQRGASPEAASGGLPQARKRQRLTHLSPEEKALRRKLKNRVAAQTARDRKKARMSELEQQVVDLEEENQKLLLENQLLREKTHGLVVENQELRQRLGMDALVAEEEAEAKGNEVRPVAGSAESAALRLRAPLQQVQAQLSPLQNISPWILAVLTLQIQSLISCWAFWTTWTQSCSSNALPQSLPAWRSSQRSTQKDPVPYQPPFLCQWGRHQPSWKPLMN

Cytochrome P450 3A4, sequence (P08684 whole entry): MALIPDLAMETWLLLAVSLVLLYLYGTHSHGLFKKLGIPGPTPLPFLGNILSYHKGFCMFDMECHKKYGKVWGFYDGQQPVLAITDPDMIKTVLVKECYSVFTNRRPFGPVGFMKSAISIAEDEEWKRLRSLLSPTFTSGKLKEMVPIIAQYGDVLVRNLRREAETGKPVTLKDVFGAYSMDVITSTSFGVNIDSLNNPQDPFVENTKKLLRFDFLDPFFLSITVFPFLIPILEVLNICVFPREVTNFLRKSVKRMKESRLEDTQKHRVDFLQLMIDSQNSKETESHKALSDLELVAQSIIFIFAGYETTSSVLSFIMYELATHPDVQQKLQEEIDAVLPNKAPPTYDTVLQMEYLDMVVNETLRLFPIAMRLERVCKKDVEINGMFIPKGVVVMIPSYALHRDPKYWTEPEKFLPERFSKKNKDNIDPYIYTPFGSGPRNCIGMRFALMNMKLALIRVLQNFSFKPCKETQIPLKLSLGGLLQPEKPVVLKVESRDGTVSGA
T4 sequence (Q00975 whole entry): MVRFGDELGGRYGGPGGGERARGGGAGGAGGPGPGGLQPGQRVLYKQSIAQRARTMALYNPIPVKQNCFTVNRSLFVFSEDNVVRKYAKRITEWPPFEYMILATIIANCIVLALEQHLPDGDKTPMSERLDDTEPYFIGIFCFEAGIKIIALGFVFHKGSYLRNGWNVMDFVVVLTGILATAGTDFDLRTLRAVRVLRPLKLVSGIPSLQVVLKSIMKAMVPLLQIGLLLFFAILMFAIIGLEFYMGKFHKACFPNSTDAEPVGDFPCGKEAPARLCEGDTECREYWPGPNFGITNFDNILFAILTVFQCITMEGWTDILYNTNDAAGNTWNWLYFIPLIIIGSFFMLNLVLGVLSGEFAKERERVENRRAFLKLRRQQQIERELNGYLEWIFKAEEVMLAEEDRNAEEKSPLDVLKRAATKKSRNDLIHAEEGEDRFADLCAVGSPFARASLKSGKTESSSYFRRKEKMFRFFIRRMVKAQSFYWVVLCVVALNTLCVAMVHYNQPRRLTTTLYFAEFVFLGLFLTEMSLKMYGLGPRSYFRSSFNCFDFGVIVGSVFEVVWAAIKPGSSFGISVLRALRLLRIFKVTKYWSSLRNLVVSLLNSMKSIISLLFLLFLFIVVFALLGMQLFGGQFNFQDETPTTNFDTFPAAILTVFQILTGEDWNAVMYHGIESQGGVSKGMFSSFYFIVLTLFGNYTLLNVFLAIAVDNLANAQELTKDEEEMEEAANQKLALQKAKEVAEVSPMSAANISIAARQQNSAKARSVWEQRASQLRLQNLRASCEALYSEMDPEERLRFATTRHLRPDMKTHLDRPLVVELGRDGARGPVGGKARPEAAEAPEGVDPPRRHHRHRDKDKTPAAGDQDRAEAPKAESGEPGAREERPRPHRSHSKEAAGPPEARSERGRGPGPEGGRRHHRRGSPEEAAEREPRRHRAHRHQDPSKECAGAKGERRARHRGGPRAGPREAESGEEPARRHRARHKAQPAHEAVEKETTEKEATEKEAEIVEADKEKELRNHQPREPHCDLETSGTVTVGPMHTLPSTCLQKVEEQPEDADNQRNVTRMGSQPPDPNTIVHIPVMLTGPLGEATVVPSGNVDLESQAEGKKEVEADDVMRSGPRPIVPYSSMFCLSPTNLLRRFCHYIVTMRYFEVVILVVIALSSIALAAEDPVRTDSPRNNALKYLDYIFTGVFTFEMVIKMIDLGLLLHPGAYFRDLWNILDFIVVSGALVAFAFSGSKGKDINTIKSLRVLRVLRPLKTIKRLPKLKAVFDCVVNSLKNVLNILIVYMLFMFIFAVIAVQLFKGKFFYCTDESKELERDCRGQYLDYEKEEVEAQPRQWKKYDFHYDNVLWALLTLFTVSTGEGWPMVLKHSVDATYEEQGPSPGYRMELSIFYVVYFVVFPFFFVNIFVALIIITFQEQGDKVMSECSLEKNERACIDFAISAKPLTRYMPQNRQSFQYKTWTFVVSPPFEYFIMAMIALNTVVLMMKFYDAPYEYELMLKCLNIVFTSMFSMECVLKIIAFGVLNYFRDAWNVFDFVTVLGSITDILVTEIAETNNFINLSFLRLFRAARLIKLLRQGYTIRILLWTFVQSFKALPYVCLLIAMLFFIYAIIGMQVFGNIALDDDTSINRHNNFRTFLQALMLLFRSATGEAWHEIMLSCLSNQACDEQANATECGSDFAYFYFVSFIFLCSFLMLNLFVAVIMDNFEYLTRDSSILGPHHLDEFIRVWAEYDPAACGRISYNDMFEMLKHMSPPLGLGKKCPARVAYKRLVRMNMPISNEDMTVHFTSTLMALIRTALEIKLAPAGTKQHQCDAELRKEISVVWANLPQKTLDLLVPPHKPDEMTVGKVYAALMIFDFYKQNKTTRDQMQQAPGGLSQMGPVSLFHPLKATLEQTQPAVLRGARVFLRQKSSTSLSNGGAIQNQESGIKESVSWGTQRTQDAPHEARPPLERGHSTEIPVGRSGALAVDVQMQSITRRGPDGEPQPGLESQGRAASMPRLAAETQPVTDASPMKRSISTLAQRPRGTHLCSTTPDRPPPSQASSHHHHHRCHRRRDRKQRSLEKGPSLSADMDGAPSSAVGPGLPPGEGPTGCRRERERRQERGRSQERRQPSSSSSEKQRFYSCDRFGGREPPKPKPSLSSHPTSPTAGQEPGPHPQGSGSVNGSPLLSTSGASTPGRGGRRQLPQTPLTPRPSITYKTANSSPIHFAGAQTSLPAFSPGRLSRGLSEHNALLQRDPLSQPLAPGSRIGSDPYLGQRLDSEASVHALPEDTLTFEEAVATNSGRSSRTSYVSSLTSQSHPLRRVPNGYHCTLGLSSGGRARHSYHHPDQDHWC
T4 sequence (Q02410 whole entry): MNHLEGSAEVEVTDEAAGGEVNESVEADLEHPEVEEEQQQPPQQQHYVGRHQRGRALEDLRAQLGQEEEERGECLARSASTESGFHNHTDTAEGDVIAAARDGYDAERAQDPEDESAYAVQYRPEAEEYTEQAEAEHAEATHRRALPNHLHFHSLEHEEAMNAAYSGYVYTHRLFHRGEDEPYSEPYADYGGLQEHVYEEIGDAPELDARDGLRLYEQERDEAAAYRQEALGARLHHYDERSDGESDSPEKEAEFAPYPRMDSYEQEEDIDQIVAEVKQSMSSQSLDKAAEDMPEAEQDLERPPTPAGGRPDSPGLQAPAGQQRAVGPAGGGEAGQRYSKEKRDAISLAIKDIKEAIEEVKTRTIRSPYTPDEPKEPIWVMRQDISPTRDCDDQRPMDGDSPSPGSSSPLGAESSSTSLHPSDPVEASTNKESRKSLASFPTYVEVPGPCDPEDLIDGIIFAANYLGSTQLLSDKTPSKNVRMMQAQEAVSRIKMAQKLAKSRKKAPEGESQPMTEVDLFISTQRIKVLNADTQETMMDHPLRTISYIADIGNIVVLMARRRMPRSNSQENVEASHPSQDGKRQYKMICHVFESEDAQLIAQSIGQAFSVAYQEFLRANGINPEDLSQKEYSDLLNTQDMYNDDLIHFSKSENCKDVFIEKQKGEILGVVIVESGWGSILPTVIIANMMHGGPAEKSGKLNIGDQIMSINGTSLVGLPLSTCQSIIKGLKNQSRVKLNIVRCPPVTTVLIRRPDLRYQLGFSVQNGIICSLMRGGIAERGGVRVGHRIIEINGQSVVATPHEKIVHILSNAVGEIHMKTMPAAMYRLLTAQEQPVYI
DNA dC->dU-editing enzyme APOBEC-3G, sequence (Q9HC16 whole entry): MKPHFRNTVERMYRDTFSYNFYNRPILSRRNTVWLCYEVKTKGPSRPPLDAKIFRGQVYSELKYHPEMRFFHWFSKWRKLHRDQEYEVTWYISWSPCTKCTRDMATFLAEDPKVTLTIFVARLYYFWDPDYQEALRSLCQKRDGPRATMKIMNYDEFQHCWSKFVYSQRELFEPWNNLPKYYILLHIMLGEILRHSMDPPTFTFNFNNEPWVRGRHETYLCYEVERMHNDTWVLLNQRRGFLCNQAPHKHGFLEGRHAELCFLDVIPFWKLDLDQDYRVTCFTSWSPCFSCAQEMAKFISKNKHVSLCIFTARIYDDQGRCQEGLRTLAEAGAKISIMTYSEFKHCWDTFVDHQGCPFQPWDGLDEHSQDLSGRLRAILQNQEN
DNA dC->dU-editing enzyme APOBEC-3A, sequence (P31941 whole entry): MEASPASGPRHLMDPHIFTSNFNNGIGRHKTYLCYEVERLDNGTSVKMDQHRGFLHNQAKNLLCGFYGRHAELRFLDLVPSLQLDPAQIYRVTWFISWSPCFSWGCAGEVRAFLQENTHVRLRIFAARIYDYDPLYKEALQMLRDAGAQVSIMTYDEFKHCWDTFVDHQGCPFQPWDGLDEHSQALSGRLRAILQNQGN
FAD-linked sulfhydryl oxidase ALR, sequence (P55789 whole entry): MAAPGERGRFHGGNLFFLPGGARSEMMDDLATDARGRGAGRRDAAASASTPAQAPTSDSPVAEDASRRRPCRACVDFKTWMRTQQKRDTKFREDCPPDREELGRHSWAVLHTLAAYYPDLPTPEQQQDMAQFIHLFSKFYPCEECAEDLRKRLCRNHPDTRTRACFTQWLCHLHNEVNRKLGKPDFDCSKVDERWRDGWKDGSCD
Luciferin 4-monooxygenase, sequence (P08659 whole entry): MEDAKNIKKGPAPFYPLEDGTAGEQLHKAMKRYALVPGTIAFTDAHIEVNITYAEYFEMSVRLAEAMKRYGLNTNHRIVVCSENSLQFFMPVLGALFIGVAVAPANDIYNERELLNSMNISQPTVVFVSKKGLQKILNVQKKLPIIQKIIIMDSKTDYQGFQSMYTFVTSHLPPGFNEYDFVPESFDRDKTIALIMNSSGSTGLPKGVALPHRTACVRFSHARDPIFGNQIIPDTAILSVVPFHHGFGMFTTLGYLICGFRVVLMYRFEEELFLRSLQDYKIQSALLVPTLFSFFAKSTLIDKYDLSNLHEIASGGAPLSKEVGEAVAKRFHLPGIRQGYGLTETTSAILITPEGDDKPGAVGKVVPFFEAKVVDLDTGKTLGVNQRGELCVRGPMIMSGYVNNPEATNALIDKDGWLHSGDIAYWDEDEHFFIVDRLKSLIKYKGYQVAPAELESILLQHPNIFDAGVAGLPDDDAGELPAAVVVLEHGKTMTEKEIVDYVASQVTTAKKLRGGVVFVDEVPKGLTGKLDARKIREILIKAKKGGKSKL

Compound: O=C(O)CN(CC(=O)O)Cc1cc2c(-c3ccccc3C(=O)O)c3cc(CN(CC(=O)O)CC(=O)O)c(=O)cc-3oc2cc1O
- AC50 (Cytochrome P450 3A4): 20 µM (inconclusive)

Compound: Oc1ccc(C2Nc3cccc4cccc(c34)N2)c(O)c1
- CC50 [1]: > 40 µM (active)
- AC50 (Cytochrome P450 2D6): 25.1 µM (inconclusive)

Compound: CCCCNCC1C(Oc2ccc(Cl)cc2)C(=O)N1c1ccccc1C (stereo not given)
- EC50 [2]: 4.22 µM (active)

Compound: CCOC(=O)C(C)(C)N(Cc1ccccc1C)S(=O)(=O)c1ccc(Cl)c([N+](=O)[O-])c1
- AC50 (HeLa): 29.8 µM (active)

Compound: CCN(c1ccc(C)cc1C)S(=O)(=O)c1nnc(NC(=O)c2ccco2)s1
- EC50 (Streptokinase A): 17.5 µM (active)
- EC50 (Streptococcus): 43.1 µM (active)
- AC50 (HeLa): 60.2 µM (active)
- EC50 [3]: 2.15 µM (active)

Compound: C=CCN(CC(O)c1cccc([N+](=O)[O-])c1)C(C)CCc1ccccc1 (stereo not given)
- EC50 [2]: 3.35 µM (active)
- EC50 [4]: > 195 µM (not active)

Compound: O=C(Nc1ccc(-c2nc3cccnc3s2)cc1)C1CCCO1 (stereo not given)
- EC50 [5]: 4.56 µM (active)
- EC50 [6]: 6.12 µM (active)
- EC50 [7]: 6.46 µM (inconclusive)
- AC50 [8]: 2.45 µM (active)
- AC50 [9]: > 52 µM (inactive)
- EC50 [10]: 4.58 µM (active)
- AC50 [11]: 38.4 µM (active)
- EC50 [12]: 6.36 µM (active)
- EC50 [4]: 11.3 µM (active)
- AC50 [13]: 1.98 µM (active)

Compound: CN(C)c1ccc(/C=C2\CCCN=C2c2cccnc2)cc1
- AC50 (Cytochrome P450 3A4): 10 µM (inconclusive)

Compound: Cc1ccc(C(=O)n2c(N)nc3ccccc32)cc1
- CC50 [14]: > 40 µM (active)
- AC50 [8]: 1.43 µM (active)
- AC50 [9]: 24.9 µM (active)
- EC50 (Streptokinase A): > 150 µM (not active)
- AC50 [11]: > 52 µM (inactive)
- EC50 (Streptococcus): 115 µM (active)
- IC50 (cells): 6.64 µM (active)
- AC50 [15]: > 52 µM (inactive)
- EC50 [3]: 13.2 µM (active)
- AC50 [13]: 1.44 µM (active)

Compound: C1=Nc2ccccc2CN1c1ccccc1
- EC50 [16]: > 50 µM (active)

Compound: COCCNC(=O)[C@H](C)/C=C/C(NC(=O)OCc1ccccc1)c1ccc(C(=O)OC)cc1 (stereo not given in full)
- AC50 (Cytochrome P450 3A4): 7.94 µM (inconclusive)

Compound: COc1ccc(C2=NCC(=O)N(CC(=O)NCc3ccco3)c3sc4c(c32)CCCC4)cc1OC
- CC50 [1]: > 40 µM (active)

Compound: Cc1nnc(S)n1/N=C/c1c(O)ccc2ccccc12
- IC50 [17]: 2.42 µM (active)
- IC50 [18]: > 100 µM (inactive)

Compound: COc1cc(/C=N/n2c(S)nnc2-c2[nH]nc3c2CCC3)cc(OC)c1O
- AC50 [19]: 0.011 µM (active)
- IC50 [17]: 1.81 µM (active)
- IC50 [18]: > 100 µM (inactive)
- IC50 (Large T antigen): 24 µM (active)

Compound: COc1ccc(CC(=O)N(Cc2cc3cc(OC)ccc3nc2O)C(C)C)cc1
- EC50 [16]: > 50 µM (active)

Compound: O=C(CCn1cccc1)Nc1ccc(OC(F)(F)F)cc1
- EC50 [16]: > 50 µM (active)

Compound: CC1=C(C(=O)O)N2C(=O)[C@@H](NC(=O)CCCC(=O)O)[C@H]2SC1
- IC50 [20]: 34 µM (active)
- IC50 [21]: > 50 µM (inactive)

Compound: O=C(Nc1cc(Cl)ccc1O)c1cc2n(n1)C(C(F)(F)F)CC(c1ccc3c(c1)OCO3)N2 (stereo not given)
- Absolute IC50 (XBP1) (X-box-binding protein 1): 10 µM

Compound: COc1cccc(NC(=O)CN(C)CC(=O)NCc2ccco2)c1
- AC50 (HeLa): 115 µM (active)

Compound: O=C1C2C(C(=O)N1/N=C/c1ccc(N3CCCCC3)o1)C1C=CC2C12CC2 (stereo not given)
- IC50 [20]: 7.24 µM (active)
- IC50 [21]: 20.1 µM (active)

Compound: COC(=O)[C@@H]1C[C@@]2(O)[C@H](O)[C@H](O)[C@H](O)C[C@H]2N1Cc1c(F)cccc1Cl
- AC50 (Cytochrome P450 3A4): 25.1 µM (inconclusive)
